Measured values from patent US7858349B2, “Anti-cancer compounds” (The Regents of the University of Colorado, priority 1999, dated 2010).
pIC50: −log10 of the molar value. Read-outs that look alike come from different tables or passages of the source.

Tested on: SCLC strain SHP-77
Test: MTT assay for cell survival, SCLC SHP-77 in vitro
Format: cell-based, human
Conditions: ED50 for killing of SCLC strain SHP-77 in vitro, 4 days, 0 = no detectable activity

Row | SMILES | pIC50 (read-out: SCLC SHP-77 IC50) | pIC50 (read-out: SHP-77 In vitro IC50)
1 | O=C(/C=C/c1c(F)c(F)c(F)c(F)c1F)N[C@@H](Cc1ccc(OCc2c(Cl)cccc2Cl)cc1)C(=O)NCCCn1ccnc1 [Analog M-1642, F5c-OC2Y-Apia] | 4.38 | 
2 | O=C(NC(Cc1ccc(OCc2c(Cl)cccc2Cl)cc1)C(=O)N1CCN(Cc2c(F)c(F)c(F)c(F)c2F)CC1)C(=Cc1ccccc1)c1ccccc1 (stereo not drawn) [Analog M-1734, Pcn-OC2Y-Pipz(F5b)] | 4.62 | 
3 | O=C(N[C@H]1CN2CCC1CC2)C(Cc1ccc(OCc2c(Cl)cccc2Cl)cc1)NC(=O)C(c1ccccc1)C1CCCCC1 (single isomer, unassigned) [M-1548 #2] | 4.89 | 
4 | CC1(C)CC(NC(=O)C(Cc2ccc(OCc3c(Cl)cccc3Cl)cc2)NC(=O)c2cccnc2Cl)CC(C)(C)N1 (stereo not drawn) [Analog M-1714, 2Cln-OC2Y-Atmp] | 5.40 | 
5 | CC(C)(C)CC(=O)NC(Cc1ccc(OCc2c(Cl)cccc2Cl)cc1)C(=O)NC1CC(C)(C)NC(C)(C)C1 (stereo not drawn) [Analog M-1748, tBua-OC2Y-Atmp] | 5.15 | 
6 | O=C(C=Cc1c(F)c(F)c(F)c(F)c1F)NC(Cc1c(F)c(F)c(F)c(F)c1F)C(=O)N1CCN(Cc2c(F)c(F)c(F)c(F)c2F)CC1 (stereo not drawn) [Analog M-1730, F5c-F5F-Pipz(F5b)] | 4.68 | 
7 | O=C(C=Cc1c(F)c(F)c(F)c(F)c1F)NC(Cc1ccc(F)cc1)C(=O)N1CCN(c2ccccn2)CC1 (stereo not drawn) [Analog M-1164, F5c-PFF-Pypz] |  | 4.85
8 | CC1(C)CC(NC(=O)C(Cc2ccc(OCc3c(Cl)cccc3Cl)cc2)NC(=O)OCC2c3ccccc3-c3ccccc32)CC(C)(C)N1 (stereo not drawn) [Analog M-1800, Fmoc-OC2Y-Atmp] | 5.77 | 
9 | CN(C(=O)C=Cc1c(F)c(F)c(F)c(F)c1F)C(Cc1ccccc1)C(=O)NC1CC(C)(C)NC(C)(C)C1 (stereo not drawn) [Analog M-1148, F5c-NMF-Atmp] |  | 4.81
10 | CC(C)CC(NC(=O)OCC1c2ccccc2-c2ccccc21)C(=O)NC1CC(C)(C)NC(C)(C)C1 (stereo not drawn) [Analog M-1798, Fmoc-Leu-Atmp] | 5.12 | 
11 | CC1(C)CC(NC(=O)C(Cc2ccc(F)cc2)NC(=O)C=Cc2c(F)c(F)c(F)c(F)c2F)CC(C)(C)N1 (stereo not drawn) [Analog M-1140, F5c-PFF-Atmp] |  | 4.82
12 | O=C(C=Cc1c(F)c(F)c(F)c(F)c1F)NC(Cc1ccc(F)cc1)C(=O)N1CCN(c2ccc(Cl)cc2)CC1 (stereo not drawn) [Analog M-1208, F5c-PFF-Cpp] |  | 4.52
13 | O=C(/C=C/c1c(F)c(F)c(F)c(F)c1F)N[C@@H](Cc1ccc(OCc2c(Cl)cccc2Cl)cc1)C(=O)N1CCCN(Cc2ccccc2)CC1 [Analog M-1606, F5c-OC2Y-Bhp] | 4.77 | 
14 | O=C(C=Cc1c(F)c(F)c(F)c(F)c1F)NC(Cc1ccc(I)cc1)C(=O)N1CCN(c2ccccn2)CC1 (stereo not drawn) [Analog M-1248, F5c-PIF-Pypz] |  | 4.89
15 | CC1(C)CC(NC(=O)C(NC(=O)C(=Cc2ccccc2)c2ccccc2)C2Cc3ccccc3C2)CC(C)(C)N1 (stereo not drawn) [Analog M-1684, Pcn-Igl-Atmp] | 5.38 | 
16 | CC1(C)CC(NC(=O)C(Cc2ccc(OCc3c(Cl)cccc3Cl)cc2)NC(=O)C(F)(F)C(F)(F)C(F)(F)C(=O)O)CC(C)(C)N1 (stereo not drawn) [M-1098 #1, CHFB-OC2Y-Atmp] |  | < 4.22
17 | CC(=O)Nc1nc(C)c(S(=O)(=O)N[C@@H](Cc2ccc(OCc3c(Cl)cccc3Cl)cc2)C(=O)NC2CC(C)(C)NC(C)(C)C2)s1 [Analog M-1628, Amts-OC2Y-Atmp] | 4.35 | 
18 | O=C(C=Cc1c(F)c(F)c(F)c(F)c1F)NC(Cc1ccc(F)cc1)C(=O)N1CCN(c2ncccn2)CC1 (stereo not drawn) [Analog M-1162, F5c-PFF-Pmpz] |  | 4.82
19 | CC1(C)CC(NC(=O)C(NC(=O)c2ccccn2)C2Cc3ccccc3C2)CC(C)(C)N1 (stereo not drawn) [Analog M-1354, Pic-Igl-Atmp] | < 4.22 | 
20 | CCCCCCC(O)CC=CCCCCCCCC(=O)NC(Cc1ccc(C#N)cc1)C(=O)NC1CC(C)(C)NC(C)(C)C1 (stereo not drawn) [Analog M-1478, Rio-PCNF-Atmp] | 4.85 | 

Row | SMILES | pIC50 (read-out: SCLC SHP-77 IC50) | pIC50 (read-out: SHP-77 In vitro IC50)
21 | CC1(C)CC(NC(=O)C(Cc2ccc(C(F)(F)F)cc2)NC(=O)C=Cc2c(F)c(F)c(F)c(F)c2F)CC(C)(C)N1 (stereo not drawn) [Analog M-1146, F5c-F3MF-Atmp] |  | 4.92
22 | CC1(C)CC(NC(=O)C(Cc2cc(I)c(OCc3c(Cl)cccc3Cl)c(I)c2)NC(=O)C(c2ccc(Cl)cc2)c2ccc(Cl)cc2)CC(C)(C)N1 (stereo not drawn) [Analog M-1762, Bcpa-OCIY-Atmp] | 5.52 | 
23 | O=C(N[C@@H](Cc1ccc(OCc2c(Cl)cccc2Cl)cc1)C(=O)N1CCN(C/C=C/c2ccccc2)CC1)C(=Cc1ccccc1)c1ccccc1 [Analog M-1654, Pcn-OC2Y-tCip] | < 4.22 | 
24 | O=C(N[C@@H](Cc1ccc(OCc2c(Cl)cccc2Cl)cc1)C(=O)NC1CCN(Cc2ccccc2)CC1)C(=Cc1ccccc1)c1ccccc1 [Analog M-1660, Pcn-OC2Y-Abzp] | 4.51 | 
25 | CC1(C)CC(NC(=O)C(Cc2ccc(F)cc2)NC(=O)C=Cc2ccoc2)CC(C)(C)N1 (stereo not drawn) [Analog M-1152, 3-Fa-PFF-Atmp] |  | < 4.22
26 | CC1(C)CC(NC(=O)C(Cc2ccc(OCc3c(Cl)cccc3Cl)cc2)NC(=O)C=Cc2ccc(-c3ccccc3)cc2)CC(C)(C)N1 (stereo not drawn) [Analog M-1776, Pcin-OC2Y-Atmp] | 5.85 | 
27 | O=C(C=Cc1cccnc1)NC(Cc1ccc2ccccc2c1)C(=O)N1CCN(C(c2ccccc2)c2ccc(Cl)cc2)CC1 (stereo not drawn) [Analog M-1204, Pya-Nal-Cbp] |  | 5.12
28 | CC1(C)CC(NC(=O)C(Cc2ccc(C(F)(F)F)cc2)NC(=O)C(=Cc2ccccc2)c2ccccc2)CC(C)(C)N1 (stereo not drawn) [Analog M-1790, Pcn-F3MF-Atmp] | 5.66 | 
29 | CC1(C)CC(NC(=O)C(Cc2ccc(OCc3c(Cl)cccc3Cl)cc2)NC(=O)c2cccc3ccccc23)CC(C)(C)N1 (stereo not drawn) [Analog M-1706, 1Nap-OC2Y-Atmp] | 5.38 | 
30 | CC1CN(C(=O)C(Cc2c(F)c(F)c(F)c(F)c2F)NC(=O)C=Cc2c(F)c(F)c(F)c(F)c2F)CC(C)N1 (stereo not drawn) [Analog M-1186, F5c-F5F-Dmpz] |  | 4.96
31 | O=C(c1ccccc1)c1ccc2n1CCC2C(=O)N[C@@H](Cc1ccc(OCc2c(Cl)cccc2Cl)cc1)C(=O)NC1CCN(Cc2ccccc2)CC1 (stereo partly drawn) [Analog M-1668, Ktlc-OC2Y-Abzp] | 5.34 | 
32 | COc1ccc2c(c1)c(CC(=O)NC(C(=O)NC1CC(C)(C)NC(C)(C)C1)C1Cc3ccccc3C1)c(C)n2C(=O)c1ccc(Cl)cc1 (stereo not drawn) [Analog M-1688, Indo-Igl-Atmp] | 5.40 | 
33 | O=C(C=Cc1c(F)c(F)c(F)c(F)c1F)NC(Cc1ccc(I)cc1)C(=O)N(Cc1ccccn1)Cc1ccccn1 (stereo not drawn) [Analog M-1256, F5c-PIF-Dpic] |  | 4.89
34 | CC1(C)CC(NC(=O)C(Cc2ccc(-c3ccccc3)cc2)NC(=O)C(Oc2ccc(Cl)cc2)Oc2ccc(Cl)cc2)CC(C)(C)N1 (stereo not drawn) [Analog M-1766, Bcpoa-Bip-Atmp] | 5.70 | 
35 | O=C(C=Cc1c(F)c(F)c(F)c(F)c1F)NC(Cc1ccc(OCc2c(Cl)cccc2Cl)cc1)C(=O)N1CCN(Cc2c(F)c(F)c(F)c(F)c2F)CC1 (stereo not drawn) [Analog M-1732, F5c-OC2Y-Pipz(F5b)] | 4.62 | 
36 | CN1CCN(CCCNC(=O)C(Cc2ccc(OCc3c(Cl)cccc3Cl)cc2)NC(=O)c2ccc3c(c2)C(=O)c2ccccc2C3=O)CC1 (stereo not drawn) [Analog M-1702, Aq2c-OC2Y-Amp] | 5.44 | 
37 | CN1CCN(CCCNC(=O)C(Cc2ccc(OCc3c(Cl)cccc3Cl)cc2)NC(=O)c2c3ccccc3nc3ccccc23)CC1 (stereo not drawn) [Analog M-1700, Acrc-OC2Y-Amp] | 5.14 | 
38 | Cc1ccccc1C=CC(=O)NC(Cc1ccc(OCc2c(Cl)cccc2Cl)cc1)C(=O)NC1CC(C)(C)NC(C)(C)C1 (stereo not drawn) [Analog M-1778, Mca-OC2Y-Atmp] | 5.82 | 
39 | COc1ccc2c(CC(=O)NC(Cc3ccc(OCc4c(Cl)cccc4Cl)cc3)C(=O)NC3CC(C)(C)NC(C)(C)C3)cc(=O)oc2c1 (stereo not drawn) [Analog M-1744, Mcoa-OC2Y-Atmp] | 5.15 | 
